“Also recorded” adds a separate entry of the source.
Key:
[1] = test system: LLC lung cancer transplanted tumor; experiment: Mouse lung cancer (LLC) transplanted tumor model
[2] = test system: PD-L1; experiment: Flow cytometry of PD-L1 expression in NCI-H157 cells; type: cell-based; conditions: flow cytometry, 1, 2 and 5 mg/mL
Experimental: (§1) NCI-H157 or LLC cells in a 6-well plate were treated with low, medium, and high doses of ME-2 at 1, 2, and 5 mg/mL, respectively, for corresponding time, and the cells were stained with a fluorescent antibody. Fluorescence intensity was measured by flow cytometry.

[3] = test system: NCI-H157 cells; experiment: CCK8 in vitro cytotoxicity assay, NCI-H157; type: cell-based; conditions: CCK8, gradient concentration, 24 h
Experimental: (§2) CCK8 was used to detect the cytotoxicity of ME-2 to NCI-H157 and LLC cells. H157 or LLC cells were inoculated overnight in 96-well cell culture plate at a concentration of 1×10^4/mL. The gradient concentration of ME-2 was prepared in the medium, and CCK8 solution was added into the 96-well cell culture plate after 24 h of action. OD values were measured at 450 nm by an enzyme-linked immunosorbent assay (ELISA) instrument.

[4] = test system: NCI-H157 cells; experiment: Co-culture of H157 tumor cells with stimulated Jurkat T cells, crystal violet staining; type: cell-based; conditions: gradient dosing, co-culture 24 h
Experimental: In order to further evaluate the anti-tumor effect of ME-2 in the experiment of co-culture of tumor cells and T cells, H157 cells were inoculated into a 24-well culture plate, subjected to gradient dosing treatment for time needed, and co-cultured with stimulated Jurkat T cells for 24 h. The tumor survival was observed under a microscope after 4% polyformaldehyde fixation and crystal violet staining. The specific manifestation was the difference in the depth of staining in the different dosages and concentrations of ME-2.

[5] = test system: LLC cells; experiment: CCK8 in vitro cytotoxicity assay, LLC; type: cell-based, mouse; conditions: CCK8, gradient concentration, 24 h
Experimental: as §2

[6] = test system: PD-L1; experiment: Western blot of PD-L1 expression in tumor cells with high expression of PD-L1 (NCI-H157, U2OS, SW620); type: cell-based, human; conditions: concentration and time gradient, most significant at 2 mg/mL, 24 h
Experimental: (§3) The tumor cells in question were non-small cell lung cancer NCI-H157, mouse lung cancer LLC, colon cancer SW620, human osteosarcoma U2OS, non-small cell lung cancer A549, liver cancer HepG-2, and breast cancer MCF-7. The total protein of the above cells was extracted; the protein concentration was determined by bicinchoninic acid (BCA) assay. The samples were loaded and subjected to sodium dodecyl sulfate (SDS) polyacrylamide gel electrophoresis (SDS-PAGE); the membrane was blocked and immunoreacted after transfer, and an enhanced chemiluminescence (ECL) solution was used for development. Picture processing and gray value analysis were performed on the exposure results on ImageJ software. According to the experimental results, the cell lines with high expression of PD-L1 were selected as follows: NCI-H157, LLC, U2OS, and SW620; and the cell lines with low or no expression of PD-L1 were A549, HepG-2, and MCF-7 (see FIGS. 3A and 3B).
(§4) Concentration and time gradient ME-2 were applied to act on four tumor cell lines with high expression of PD-L1, respectively. The Western blot method was used for detection, and the experimental method was shown above. […] The downregulation of tumor cell baseline PD-L1 was concentration dependent (see FIG. 5A) and time dependent (see FIG. 5B). The downregulation of PD-L1 was most significant when the dose concentration was 2 mg/mL and the administration time was 24 h.
A Western blot was used to detect the effects of Auricularia auricula total polysaccharide METP and Auricularia auricula deacetylated monomeric polysaccharide dME-2 on the expression of PD-L1 in H157 cells, and Auricularia auricula monomeric polysaccharide ME-2 was used as a positive control. The experimental procedure was described in Example 1.

[7] = molecular target: T1, PD-L1/PD-1 interaction (Homo sapiens, UniProt Q9NZQ7); experiment: PD-1Fc binding to PD-L1 on NCI-H157 cells (flow cytometry and confocal); type: cell-based; conditions: 24 h of ME-2 treatment, human recombinant PD-1Fc, dose-dependent
T1 construct: NCI-H157 cells were inoculated on a 24-well cell culture plate; endogenous in cells; host or cells: NCI-H157
Experimental: NCI-H157 cells were inoculated on a 24-well cell culture plate and subjected to gradient dosing treatment for time needed after cell adhesion. The cells were fixed at room temperature with a 4% solution of paraformaldehyde. The cells were washed with PBS buffer several times. An appropriate amount of human recombinant PD-1Fc protein was added to the fixed cells and incubated for 1 h, and the cells were washed with PBS buffer several times. Anti-human IgG (Alexa Fluor 488) fluorescent secondary antibody was added and incubated for 30 min. After nuclear staining, a glycerol sealing layer was applied. Green fluorescence signals were observed under a fluorescence microscope and photographed for statistics, or the fluorescence intensity was measured by flow cytometry.

[8] = test system: PD-L1; experiment: Western blot of IFN-γ-induced PD-L1 expression (A549, HepG-2, MCF-7); type: cell-based; conditions: ME-2 and IFN-γ co-acted on cells
Experimental: as §3
Interferon IFN-γ is an important factor in inducing PD-L1 expression in the tumor immune microenvironment. We used low-expression PD-L1 tumor cells (non-small cell lung cancer A549, liver cancer HepG-2, and breast cancer MCF-7). ME-2 and IFN-γ were co-acted on cells; their expression abundance was detected by the Western blot method, and the experimental method was shown above.

[9] = test system: PD-L1; experiment: Flow cytometry of PD-L1 expression in LLC cells; type: cell-based, mouse; conditions: flow cytometry, 1, 2 and 5 mg/mL
Experimental: as §1

[10] = test system: PD-L1; experiment: Western blot of PD-L1 expression in mouse lung cancer LLC cells; type: cell-based; conditions: concentration and time gradient, most significant at 2 mg/mL, 24 h
Experimental: as §3
as §4, with “The downregulation of PD-L1 was most significant when the dose concentration was 2 mg/mL and the administration time was 24 h.” left out

[11] = molecular target: PD-L1 and PD-1 protein (Homo sapiens, UniProt Q9NZQ7); experiment: SPR competitive experiment between ME-2 and PD-1 for PD-L1; type: binding
From the text: Biacore 8K high-throughput molecular interaction analysis system, CM5 chip, and phosphate buffered saline (PBS) buffer as the mobile phase of the instrument were used in the whole process of the surface plasmon resonance experiment. The PD-L1 was coupled to the activated CM5 chip using an amino coupling kit. […] The ME-2 polysaccharide solution with different concentrations was passed through the coupling channel and the blank channel at a certain velocity by using the running buffer. After 60 s of dissociation, the chip was regenerated with 10 mM glycine-HCl (pH2.0) and 3 M NaCl at a flow rate of […] for 30 s. Biacore Evaluation 3.1 software and GraphPad Prism 8.0 software were used to analyze the data and obtain the response curve.

[12] = molecular target: PD-L1 protein (Homo sapiens, UniProt Q9NZQ7); experiment: SPR affinity analysis with PD-L1 protein (Biacore 8K, CM5 chip); type: binding
Experimental: Biacore 8K high-throughput molecular interaction analysis system, CM5 chip, and phosphate buffered saline (PBS) buffer as the mobile phase of the instrument were used in the whole process of the surface plasmon resonance experiment. The PD-L1 was coupled to the activated CM5 chip using an amino coupling kit. […] After 60 s of dissociation, the chip was regenerated with 10 mM glycine-HCl (pH2.0) and 3 M NaCl at a flow rate of 30 L/min for 30 s. Biacore Evaluation 3.1 software and GraphPad Prism 8.0 software were used to analyze the data and obtain the response curve.

[13] = molecular target: PD-1 protein (Homo sapiens, UniProt Q15116); experiment: SPR affinity analysis with PD-1 protein; type: binding
PD-1 protein, sequence (Q15116 25-288): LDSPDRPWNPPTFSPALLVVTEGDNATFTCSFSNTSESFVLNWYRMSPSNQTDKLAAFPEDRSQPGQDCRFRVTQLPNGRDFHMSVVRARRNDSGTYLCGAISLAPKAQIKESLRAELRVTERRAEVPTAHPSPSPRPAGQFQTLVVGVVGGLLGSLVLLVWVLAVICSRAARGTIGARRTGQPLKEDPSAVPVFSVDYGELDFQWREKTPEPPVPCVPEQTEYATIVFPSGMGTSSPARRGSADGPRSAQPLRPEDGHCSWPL

T1 sequence (Q9NZQ7 19-290): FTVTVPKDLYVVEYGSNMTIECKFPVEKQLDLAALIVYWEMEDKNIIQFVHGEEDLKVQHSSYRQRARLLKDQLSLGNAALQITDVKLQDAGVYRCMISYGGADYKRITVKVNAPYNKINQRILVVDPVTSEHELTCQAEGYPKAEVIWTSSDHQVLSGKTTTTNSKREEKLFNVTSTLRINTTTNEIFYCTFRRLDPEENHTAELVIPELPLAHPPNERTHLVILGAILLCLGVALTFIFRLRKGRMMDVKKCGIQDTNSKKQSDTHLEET
PD-L1 protein, sequence (Q9NZQ7 19-290, species assumed): as the sequence (Q9NZQ7 19-290) above
PD-L1 and PD-1 protein, sequence (Q9NZQ7 19-238 limits assumed, species assumed): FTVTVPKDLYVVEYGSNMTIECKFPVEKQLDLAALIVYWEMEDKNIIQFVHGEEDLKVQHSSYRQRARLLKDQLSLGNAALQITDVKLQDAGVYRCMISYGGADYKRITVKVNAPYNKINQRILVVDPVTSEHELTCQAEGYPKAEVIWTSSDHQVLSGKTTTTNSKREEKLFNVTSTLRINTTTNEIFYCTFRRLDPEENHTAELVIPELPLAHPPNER

Which “HE staining of vital organs of mice” value ([1]; ME-2 100 mg/kg) does the source give for “high-acetyl glucuronoxylogalactoglucomannan [ME-2]” here?
Its value is “did not cause organic changes”.

What about the “serum indexes of mice” value ([1]; ME-2 100 mg/kg) of the same substance?
Its value is “consistent with those of the control group”.

What about the “tumor growth in model mice” value ([1]; ME-2 100 mg/kg, oral administration, 100 mg/kg) of the same substance?
The value was “obvious better than a positive drug; also recorded: effectively inhibited”.

What about the “toxic and side effects on mice” value ([1]; ME-2 at the dosage used (100 mg/kg)) of the same substance?
The value was “no obvious toxic and side effects”.

What about the “body weight of mice” value ([1]; ME-2 experiment, all groups) of the same substance?
Its value is “no significant difference”.

And the “PD-L1 mRNA level in mouse tumors” value ([1]; qPCR, ME-2 treated mice)?
The value was “significantly reduce”.

What about the “PD-L1 fluorescence intensity in NCI-H157 cells” value [2] of the same substance?
Its value is “concentration dependent inhibition”.

What about the “cytotoxicity / proliferation of NCI-H157 cells” value [3] of the same substance?
Its value is “no obvious cytotoxicity”.

And the “sensitivity of NCI-H157 cells to killing by Jurkat T cells” value [4]?
The value was “more sensitive to the killing of Jurkat T cells”.

What about the “cytotoxicity / proliferation of LLC cells” value [5] of the same substance?
The value was “no obvious cytotoxicity”.

What about the “abundance of PD-L1 in NCI-H157 cells” value [6] of the same substance?
Its value is “significantly down-regulated”.

What about the “abundance of PD-L1 in SW620 cells” value [6] of the same substance?
Its value is “significantly down-regulated”.

And the “abundance of PD-L1 in U2OS cells” value [6]?
The value was “significantly down-regulated”.

And the “PD-1 binding to PD-L1 in NCI-H157 cells” value [7]?
Its value is “decreased”.

What about the “IFN-γ-induced expression of PD-L1 in A549 cells” value [8] of the same substance?
Its value is “significantly down-regulated”.

What about the “IFN-γ-induced expression of PD-L1 in HepG-2 cells” value [8] of the same substance?
Its value is “significantly down-regulated”.

What about the “IFN-γ-induced expression of PD-L1 in MCF-7 cells” value [8] of the same substance?
Its value is “significantly down-regulated”.

What about the “PD-L1 fluorescence intensity in LLC cells” value [9] of the same substance?
The value was “concentration dependent inhibition”.

What about the “abundance of PD-L1 in LLC cells” value [10] of the same substance?
The value was “significantly down-regulated”.

What about the “binding of PD-L1 and PD-1 protein with increasing concentration of ME-2” value [11] of the same substance?
Its value is “significantly inhibited”.

And the “affinity to PD-L1 protein (in words)” value [12]?
The value was “strong affinity”.

What about the “affinity to PD-1 protein (in words)” value [13] of the same substance?
Its value is “no affinity”.

Reference: patent US20250049869A1, “USE OF AURICULARIA AURICULA TOTAL POLYSACCHARIDE OR MONOMERIC POLYSACCHARIDE IN PREPARATION OF PD-L1 INHIBITOR” (priority 2023, published 2025)
